Laboratory results: ChEMBL document CHEMBL3627649, “Identification of Substituted Naphthotriazolediones as Novel Tryptophan 2,3-Dioxygenase (TDO) Inhibitors through Structure-Based Virtual Screening” (J Med Chem, 2015)

Columns and labels:
[1] = target: Tryptophan 2,3-dioxygenase (Homo sapiens, UniProt P48775); test: Inhibition of recombinant human TDO expressed in Escherichia coli incubated for 1 hr measured by absorbance assay
[2] = target: Indoleamine 2,3-dioxygenase 1 (Homo sapiens, UniProt P14902); test: Inhibition of recombinant human IDO expressed in Escherichia coli incubated for 1 hr measured by fluorescence assay
Sequence of Indoleamine 2,3-dioxygenase 1 (P14902 whole entry): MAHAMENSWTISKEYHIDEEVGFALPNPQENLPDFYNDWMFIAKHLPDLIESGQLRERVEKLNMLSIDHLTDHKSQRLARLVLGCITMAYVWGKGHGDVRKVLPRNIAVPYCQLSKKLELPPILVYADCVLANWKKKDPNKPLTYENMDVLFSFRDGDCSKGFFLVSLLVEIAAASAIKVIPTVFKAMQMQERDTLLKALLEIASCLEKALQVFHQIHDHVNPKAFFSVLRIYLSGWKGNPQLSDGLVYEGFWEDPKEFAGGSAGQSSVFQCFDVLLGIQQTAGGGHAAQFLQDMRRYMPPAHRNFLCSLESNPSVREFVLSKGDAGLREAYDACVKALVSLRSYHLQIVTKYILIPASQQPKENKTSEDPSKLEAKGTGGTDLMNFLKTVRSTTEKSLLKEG

[3] = Redox cycling activity of the compound assessed as H2O2 production incubated for 15 mins by HRP-PR assay in presence of 0.8 mM DTT
[4] = target: T1, Tyrosine-protein phosphatase non-receptor type 1 (Homo sapiens, UniProt P18031); test: Inhibition of human PTP1B preincubated with protein for 15 mins followed by DiFMUP addition for 1 hr measured by fluorescence analysis
T1 sequence (P18031 whole entry): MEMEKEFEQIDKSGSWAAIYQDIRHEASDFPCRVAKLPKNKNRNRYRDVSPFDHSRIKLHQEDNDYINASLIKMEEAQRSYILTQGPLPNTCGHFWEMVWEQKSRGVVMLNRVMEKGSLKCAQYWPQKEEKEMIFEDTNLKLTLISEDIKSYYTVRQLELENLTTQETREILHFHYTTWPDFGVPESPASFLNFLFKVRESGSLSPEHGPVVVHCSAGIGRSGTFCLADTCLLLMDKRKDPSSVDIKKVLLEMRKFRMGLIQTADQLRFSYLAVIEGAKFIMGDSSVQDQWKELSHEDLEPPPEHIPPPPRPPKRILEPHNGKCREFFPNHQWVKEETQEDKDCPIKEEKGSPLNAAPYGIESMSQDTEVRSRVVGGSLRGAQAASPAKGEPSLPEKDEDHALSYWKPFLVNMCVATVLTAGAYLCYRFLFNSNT

[5] = Inhibition of human muscle mitochondrial complex 1 by spectrophotometric assay
Mu-type opioid receptor = Mu-type opioid receptor (Homo sapiens, UniProt P35372); test: Inhibition of recombinant mu-opioid receptor (unknown origin) expressed in CHO cells for 60 mins; assay type: cell-based
Sequence of Mu-type opioid receptor (P35372 whole entry): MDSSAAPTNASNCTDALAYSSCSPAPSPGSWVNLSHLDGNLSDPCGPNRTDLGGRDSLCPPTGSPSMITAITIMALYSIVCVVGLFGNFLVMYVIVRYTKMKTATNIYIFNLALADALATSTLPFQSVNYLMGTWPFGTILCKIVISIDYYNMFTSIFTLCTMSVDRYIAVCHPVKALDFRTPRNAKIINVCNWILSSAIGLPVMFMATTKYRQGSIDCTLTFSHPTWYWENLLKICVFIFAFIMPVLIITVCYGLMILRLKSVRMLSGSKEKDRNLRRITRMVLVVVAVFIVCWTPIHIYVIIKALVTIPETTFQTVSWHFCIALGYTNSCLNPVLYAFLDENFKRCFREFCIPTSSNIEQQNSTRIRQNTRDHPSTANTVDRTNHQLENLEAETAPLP

[6] = target: C-X-C chemokine receptor type 4 (Homo sapiens, UniProt P61073); test: Displacement of 125I-SDF-1 from human CXCR4 expressed in HEK293 cells incubated for 1.5 hrs by Topcount analysis; assay type: cell-based
Sequence of C-X-C chemokine receptor type 4 (P61073 whole entry): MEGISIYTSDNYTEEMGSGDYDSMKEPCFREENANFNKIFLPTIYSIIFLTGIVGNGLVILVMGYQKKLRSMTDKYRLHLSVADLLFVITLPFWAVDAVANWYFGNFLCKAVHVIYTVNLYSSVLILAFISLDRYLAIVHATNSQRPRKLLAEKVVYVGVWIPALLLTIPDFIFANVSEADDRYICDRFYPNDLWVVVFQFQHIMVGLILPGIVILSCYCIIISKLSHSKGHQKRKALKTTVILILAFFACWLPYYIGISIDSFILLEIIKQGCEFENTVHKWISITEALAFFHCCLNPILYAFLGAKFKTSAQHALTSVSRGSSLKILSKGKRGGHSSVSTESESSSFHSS

[7] = target: Epidermal growth factor receptor (Homo sapiens, UniProt P00533); test: Inhibition of human EGFR incubated for 2 hrs by Kinase-Glo luminescent kinase assay
Sequence of Epidermal growth factor receptor (P00533 whole entry): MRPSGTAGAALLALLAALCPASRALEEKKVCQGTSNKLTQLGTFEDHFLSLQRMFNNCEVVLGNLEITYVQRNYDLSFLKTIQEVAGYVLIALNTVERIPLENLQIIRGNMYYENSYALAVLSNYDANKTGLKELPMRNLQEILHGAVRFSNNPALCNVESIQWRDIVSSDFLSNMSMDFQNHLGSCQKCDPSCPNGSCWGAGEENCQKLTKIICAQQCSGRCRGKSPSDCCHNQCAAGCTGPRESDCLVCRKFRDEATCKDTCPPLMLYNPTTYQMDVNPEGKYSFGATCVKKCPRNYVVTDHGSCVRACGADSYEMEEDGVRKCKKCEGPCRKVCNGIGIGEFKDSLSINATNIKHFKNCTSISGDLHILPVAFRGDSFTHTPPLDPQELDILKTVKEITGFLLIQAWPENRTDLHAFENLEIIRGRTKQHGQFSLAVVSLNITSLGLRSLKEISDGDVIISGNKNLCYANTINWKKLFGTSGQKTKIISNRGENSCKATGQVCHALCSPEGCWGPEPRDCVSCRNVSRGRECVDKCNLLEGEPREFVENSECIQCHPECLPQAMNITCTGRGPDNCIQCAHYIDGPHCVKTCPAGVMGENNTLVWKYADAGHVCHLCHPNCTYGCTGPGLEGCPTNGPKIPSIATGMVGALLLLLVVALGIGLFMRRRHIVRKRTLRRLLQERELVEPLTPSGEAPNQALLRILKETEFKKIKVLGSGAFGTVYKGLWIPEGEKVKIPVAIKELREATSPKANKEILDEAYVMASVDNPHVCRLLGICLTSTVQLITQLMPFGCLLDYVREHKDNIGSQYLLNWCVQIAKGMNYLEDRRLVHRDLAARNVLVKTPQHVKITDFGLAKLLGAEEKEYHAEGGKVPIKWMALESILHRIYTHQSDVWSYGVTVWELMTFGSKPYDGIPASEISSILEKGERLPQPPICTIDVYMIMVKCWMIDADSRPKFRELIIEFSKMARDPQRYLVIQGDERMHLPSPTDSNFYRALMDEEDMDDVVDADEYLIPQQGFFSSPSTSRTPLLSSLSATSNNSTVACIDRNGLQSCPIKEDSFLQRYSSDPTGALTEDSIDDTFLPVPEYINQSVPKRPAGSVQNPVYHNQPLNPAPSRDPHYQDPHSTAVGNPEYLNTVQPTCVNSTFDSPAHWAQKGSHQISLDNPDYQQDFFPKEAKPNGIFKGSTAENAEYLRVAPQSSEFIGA

[8] = Inhibition of Dengue virus type 2 NS2B-NS3 protease
Catalase = target: T2, Catalase (Homo sapiens, UniProt P04040); test: Inhibition of catalase (unknown origin)
T2 sequence (P04040 whole entry): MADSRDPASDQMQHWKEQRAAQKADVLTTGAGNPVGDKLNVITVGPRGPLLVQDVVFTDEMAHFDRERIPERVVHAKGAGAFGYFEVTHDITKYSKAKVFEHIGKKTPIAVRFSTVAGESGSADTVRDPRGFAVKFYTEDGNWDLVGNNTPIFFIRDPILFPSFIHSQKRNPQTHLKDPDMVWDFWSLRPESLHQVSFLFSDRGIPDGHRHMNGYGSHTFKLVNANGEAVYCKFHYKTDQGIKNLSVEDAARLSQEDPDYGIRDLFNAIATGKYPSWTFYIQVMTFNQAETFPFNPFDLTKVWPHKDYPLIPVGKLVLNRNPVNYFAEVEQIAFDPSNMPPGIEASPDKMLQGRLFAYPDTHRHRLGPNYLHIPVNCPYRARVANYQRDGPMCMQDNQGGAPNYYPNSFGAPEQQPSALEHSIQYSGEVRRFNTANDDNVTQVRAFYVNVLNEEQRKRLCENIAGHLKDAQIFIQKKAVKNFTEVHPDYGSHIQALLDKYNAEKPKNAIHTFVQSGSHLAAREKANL

Aurora kinase A = target: T3, Aurora kinase A (Homo sapiens, UniProt O14965); test: Inhibition of Aurora A (unknown origin)
T3 sequence (O14965 whole entry): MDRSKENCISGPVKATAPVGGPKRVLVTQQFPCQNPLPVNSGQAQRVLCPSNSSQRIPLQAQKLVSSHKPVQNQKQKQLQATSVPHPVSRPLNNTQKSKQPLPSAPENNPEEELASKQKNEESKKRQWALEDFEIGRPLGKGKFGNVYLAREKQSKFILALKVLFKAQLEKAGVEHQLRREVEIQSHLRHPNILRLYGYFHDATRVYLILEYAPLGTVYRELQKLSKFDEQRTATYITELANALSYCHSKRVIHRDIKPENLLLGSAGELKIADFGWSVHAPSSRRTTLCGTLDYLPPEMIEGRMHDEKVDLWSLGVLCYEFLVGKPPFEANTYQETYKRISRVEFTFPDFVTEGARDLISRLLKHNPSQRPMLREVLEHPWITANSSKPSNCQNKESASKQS

[9] = target: T4, Receptor-type tyrosine-protein kinase FLT3 (Homo sapiens, UniProt P36888); test: Inhibition of FLT3 (unknown origin) expressed in Sf9 insect cells for 4 hrs by Kinase-Glo assay
T4 sequence (P36888 whole entry): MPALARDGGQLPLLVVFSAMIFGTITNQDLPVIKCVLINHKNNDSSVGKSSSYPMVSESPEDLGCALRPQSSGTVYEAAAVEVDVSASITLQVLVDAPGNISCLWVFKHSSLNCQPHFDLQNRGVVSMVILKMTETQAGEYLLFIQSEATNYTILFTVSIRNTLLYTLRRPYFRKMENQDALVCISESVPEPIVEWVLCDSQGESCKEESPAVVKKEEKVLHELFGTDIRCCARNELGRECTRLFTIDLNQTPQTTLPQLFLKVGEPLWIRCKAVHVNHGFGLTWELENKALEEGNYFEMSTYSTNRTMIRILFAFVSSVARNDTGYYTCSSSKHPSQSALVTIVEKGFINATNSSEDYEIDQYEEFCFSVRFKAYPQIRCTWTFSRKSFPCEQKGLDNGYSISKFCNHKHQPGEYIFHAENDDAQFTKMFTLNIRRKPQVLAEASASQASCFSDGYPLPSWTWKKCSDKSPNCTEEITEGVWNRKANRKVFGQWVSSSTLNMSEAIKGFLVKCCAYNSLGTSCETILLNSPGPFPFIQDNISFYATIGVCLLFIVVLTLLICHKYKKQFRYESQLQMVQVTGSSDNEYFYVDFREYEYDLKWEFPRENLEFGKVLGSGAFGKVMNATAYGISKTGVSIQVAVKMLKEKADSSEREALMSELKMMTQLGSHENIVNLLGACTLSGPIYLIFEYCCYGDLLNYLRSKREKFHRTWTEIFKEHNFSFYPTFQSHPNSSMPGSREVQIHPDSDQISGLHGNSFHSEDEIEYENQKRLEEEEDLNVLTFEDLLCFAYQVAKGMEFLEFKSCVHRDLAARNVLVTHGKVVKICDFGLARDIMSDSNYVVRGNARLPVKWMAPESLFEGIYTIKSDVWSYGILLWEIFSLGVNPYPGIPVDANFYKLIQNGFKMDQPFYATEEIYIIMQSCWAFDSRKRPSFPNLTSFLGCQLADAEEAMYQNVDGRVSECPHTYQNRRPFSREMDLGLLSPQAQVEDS

Sequence of Tryptophan 2,3-dioxygenase (P48775 whole entry): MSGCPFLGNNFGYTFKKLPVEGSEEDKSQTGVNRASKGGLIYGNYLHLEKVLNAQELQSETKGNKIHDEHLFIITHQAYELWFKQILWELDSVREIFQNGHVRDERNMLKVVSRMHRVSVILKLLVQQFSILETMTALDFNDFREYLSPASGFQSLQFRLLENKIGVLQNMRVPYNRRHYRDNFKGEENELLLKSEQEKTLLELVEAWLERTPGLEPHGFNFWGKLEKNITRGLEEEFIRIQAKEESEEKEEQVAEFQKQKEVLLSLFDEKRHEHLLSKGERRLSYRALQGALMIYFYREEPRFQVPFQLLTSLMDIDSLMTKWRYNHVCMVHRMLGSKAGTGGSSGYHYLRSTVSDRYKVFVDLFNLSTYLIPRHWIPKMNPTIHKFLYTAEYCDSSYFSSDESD

Structure (SMILES) | IC50 [1] [nM] | IC50 [2] [nM] | also measured
CCN(CC)C(=O)Cc1ccc(Cn2nnc3c2C(=O)c2ccccc2C3=O)cc1 | 145 | 922 | –
O=C1c2ccccc2C(=O)c2c1nnn2Cc1cccc(Cl)c1 | 711 | 767 | AC50 [3]: > 50 µM; IC50 [4]: > 10 µM
CN1CCN(C(=O)c2ccc(Cn3nnc4c3C(=O)c3ccccc3C4=O)cc2)CC1 | 108 | 2070 | –
O=C1c2ccccc2C(=O)c2c1nnn2Cc1ccc(Cl)cc1 | 6460 | > 10000 | –
COC1CCN(C(=O)c2ccc(Cn3nnc4c3C(=O)c3ccccc3C4=O)cc2)CC1 | 209 | 1590 | –
CN1CCN(C(=O)c2cccc(Cn3nnc4c3C(=O)c3ccccc3C4=O)c2)CC1 | – | 640 | IC50 [5]: > 10 µM; IC50 (Mu-type opioid receptor): > 10 µM; AC50 [3]: > 50 µM; IC50 [6]: > 10 µM; IC50 [7]: > 10 µM; IC50 [8]: > 10 µM; IC50 (Catalase): > 10 µM; IC50 [4]: > 10 µM; IC50 (Aurora kinase A): > 10 µM; IC50 [9]: > 10 µM
Cc1ccccc1Cn1nnc2c1C(=O)c1ccccc1C2=O | 561 | 809 | IC50 [5]: > 10 µM; IC50 (Mu-type opioid receptor): > 10 µM; IC50 [6]: > 10 µM; IC50 [7]: > 10 µM; IC50 [8]: > 10 µM; IC50 (Catalase): > 10 µM; IC50 (Aurora kinase A): > 10 µM; IC50 [9]: > 10 µM
Cc1cccc(Cn2nnc3c2C(=O)c2ccccc2C3=O)c1 | 1750 | 4610 | –
CCN(CC)C(=O)c1ccc(Cn2nnc3c2C(=O)c2ccccc2C3=O)cc1 | 181 | 1930 | –
Cc1ccc(Cn2nnc3c2C(=O)c2ccccc2C3=O)cc1 | 1090 | 1770 | –
CCN(CC)C(=O)c1cccc(Cn2nnc3c2C(=O)c2ccccc2C3=O)c1 | 90 | 977 | –
O=C1c2ccccc2C(=O)c2c1nnn2Cc1ccc(F)cc1 | 7380 | 2590 | –
O=C1c2ccccc2C(=O)c2c1nnn2Cc1cccc(Br)c1 | 768 | 3160 | –
CC(=O)N1CCN(C(=O)c2ccc(Cn3nnc4c3C(=O)c3ccccc3C4=O)cc2)CC1 | 176 | 1100 | –
CC(=O)N1CCN(C(=O)c2cccc(Cn3nnc4c3C(=O)c3ccccc3C4=O)c2)CC1 | 59 | 602 | –
O=C1c2ccccc2C(=O)c2c1nnn2Cc1ccc(Br)cc1 | 1590 | > 10000 | –
O=C(O)c1ccc(Cn2nnc3c2C(=O)c2ccccc2C3=O)cc1 | 312 | 2320 | –
O=C(O)c1cccc(Cn2nnc3c2C(=O)c2ccccc2C3=O)c1 | 167 | 1240 | –
O=C1c2ccccc2C(=O)c2c1nnn2Cc1ccc(C(=O)N2CCOCC2)cc1 | 116 | 982 | –
O=C1c2ccccc2C(=O)c2c1nnn2Cc1cccc(C(=O)N2CCOCC2)c1 | 48 | 936 | –
